A word on the Emax: it is the maximal effect, on the per cent scale that the assay sets. By DC50 is commonly meant the concentration giving 50% degradation. As a reminder, the IC50 is the concentration needed to halve the response being measured. Read a high IC50 as weaker potency in that assay.

Data on 13 compounds can be found in ChEMBL document CHEMBL5346948, “Expanding Chemical Probe Space: Quality Criteria for Covalent and Degrader Probes” (J Med Chem, 2023).

In assay [1] the target is T1, Estrogen receptor (Homo sapiens) (UniProt P03372).
T1 sequence (whole entry): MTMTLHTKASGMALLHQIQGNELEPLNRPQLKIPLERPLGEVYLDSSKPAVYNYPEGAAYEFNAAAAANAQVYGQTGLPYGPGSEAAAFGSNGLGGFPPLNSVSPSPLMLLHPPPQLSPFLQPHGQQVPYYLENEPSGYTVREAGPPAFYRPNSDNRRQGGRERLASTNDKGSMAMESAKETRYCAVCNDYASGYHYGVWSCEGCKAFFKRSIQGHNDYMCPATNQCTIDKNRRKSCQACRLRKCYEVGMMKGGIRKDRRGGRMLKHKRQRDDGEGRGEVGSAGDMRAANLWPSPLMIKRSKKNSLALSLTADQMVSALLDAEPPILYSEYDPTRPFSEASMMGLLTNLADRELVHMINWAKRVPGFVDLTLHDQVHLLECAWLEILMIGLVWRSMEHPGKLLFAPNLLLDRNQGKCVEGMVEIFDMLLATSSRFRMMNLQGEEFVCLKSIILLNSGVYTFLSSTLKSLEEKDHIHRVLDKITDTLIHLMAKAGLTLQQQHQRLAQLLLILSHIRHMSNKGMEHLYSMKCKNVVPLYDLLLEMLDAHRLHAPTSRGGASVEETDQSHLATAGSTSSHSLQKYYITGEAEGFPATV
The experiment in a line: Induction of ERalpha degradation in human MCF7 cells assessed as maximal degradation relative to control. Type of assay: cell-based.

For assay [2], the system named is Cereblon/Bromodomain-containing protein 9 (Homo sapiens). The experiment in a line: PROTAC activity at CRBN/BRD9 in human HeLa cells assessed as induction of protein degradation by measuring maximal degradation relative to control.
In assay [3] the target is Cereblon/Bromodomain-containing protein 9 (Homo sapiens). The assay is described as follows: PROTAC activity at CRBN/BRD9 in human HeLa cells assessed as protein degradation by Western blot analysis. On the technique in general: Immunoblotting shows a protein as a band on a membrane.
The target of assay [4] is T2, B-cell lymphoma 6 protein (Homo sapiens, UniProt P41182). The experiment in a line: Induction of BCL6 degradation in human SU-DHL-4 cells. The assay is classed as cell-based.
The target of assay [5] is T2, B-cell lymphoma 6 protein. The experiment in a line: Induction of BCL6 degradation in human SU-DHL-4 cells assessed as maximal degradation relative to control. The assay is classed as cell-based.
Assay [6] concerns GTPase KRas (Homo sapiens), P01116 [G12C]. The experiment in a line: Binding affinity to Hexahistidine-tagged recombinant human KRAS G12C mutant (1 to 169 residues) expressed in Escherichia coli assessed as kinact/Ki ratio.
The target of assay [7] is T3, von Hippel-Lindau disease tumor suppressor/Bcl-2-like protein 1 (Homo sapiens, UniProt Q07817+P40337). The experiment in a line: Protac activity at VHL/BCL-XL in human MOLT-4 cells assessed as induction of BCL-XL degradation incubated for 16 hrs by immunoblot analysis. The assay is classed as cell-based.
The target of assay [8] is T3, von Hippel-Lindau disease tumor suppressor/Bcl-2-like protein 1. The experiment in a line: Protac activity at VHL/BCL-XL in human MOLT-4 cells assessed as induction of protein degradation by measuring maximal degradation relative to control. Type of assay: cell-based.
Assay [9] deals with T4, Zinc finger protein Helios (Homo sapiens, UniProt Q9UKS7). The assay is described as follows: Induction of IKZF2 degradation in human GripTite 293 MSR cells. Type of assay: cell-based.
For assay [10], the target named is T4, Zinc finger protein Helios. The assay is described as follows: Induction of IKZF2 degradation in human GripTite 293 MSR cells assessed as maximal degradation relative to control. Type of assay: cell-based.
Assay [11] deals with T5, Protein cereblon/RAC-alpha serine/threonine-protein kinase (Homo sapiens, UniProt P31749+Q96SW2). The experiment in a line: Protac activity at CRBN/Akt1 in human JeKo-1 cells assessed as induction of Akt1 degradation by measuring maximal protein degradation relative to control. Type of assay: cell-based.
The target in assay [12] is T5, Protein cereblon/RAC-alpha serine/threonine-protein kinase. The assay is described as follows: Protac activity at CRBN/Akt1 in human JeKo-1 cells assessed as Akt1 degradation by immunoblot analysis. Type of assay: cell-based.
Assay [13] concerns the target von Hippel-Lindau disease tumor suppressor/SWI/SNF-related matrix-associated actin-dependent regulator of chromatin subfamily A member 2 (Homo sapiens) (UniProt P51531+P40337). The assay is described as follows: PROTAC activity at SMARCA2/VHL in human MV4-11 cells assessed as induction of protein degradation by measuring maximal protein degradation relative to control. The assay is classed as cell-based.

The target in assay [14] is Tyrosine-protein kinase JAK1 (Homo sapiens, UniProt P23458). The experiment in a line: Inhibition of JAK1 (unknown origin).
Assay [15] relates to GTPase KRas (Homo sapiens), P01116 [G12C]. The assay is described as follows: Binding affinity to KRAS G12 mutant (unknown origin) assessed as kinact/Ki ratio.

On to `O=C1CC[C@H](N2Cc3cc(N4CCN(CC5CCN(c6ccc([C@@H]7c8ccc(O)cc8CC[C@@H]7c7ccccc7)cc6)CC5)CC4)ccc3C2=O)C(=O)N1`, for which the Emax in [1] came out at 80%.

On to `COc1cc(-c2cn(C)c(=O)c(C)c2C)cc(OC)c1CN1CC[C@H](N2CCN(c3ccc(N[C@H]4CCC(=O)NC4=O)cc3F)CC2)C(F)(F)C1` [SENDEGOBRESIB], for which, in assay [2], the Emax was 96%. The DC50 in [3] was 3 nM.

The compound `CNC(=O)COc1cc2cc(Nc3nc(N4C[C@H](C)C[C@H](C)C4)ncc3Cl)ccc2n(C)c1=O` returned a DC50 in assay [4] of 20 nM. Moreover, in assay [5], the Emax was > 80%.

For the compound `C=CS(=O)(=O)NC1CCN(C(=O)CNc2cc(I)c(Cl)cc2O)CC1`, in assay [6], the Ratio is 0.33 s⁻¹ M⁻¹.

On to `C=CC(=O)N1CCN(c2ncnc3c(F)c(-c4c(O)cccc4F)c(Cl)cc23)CC1`, for which the Ratio in [6] amounted to 1100 s⁻¹ M⁻¹.

In the case of `C=CC(=O)N1CC(N2CCN(C(=O)CNc3cc(C4(C)CC4)c(Cl)cc3O)CC2)C1`, in assay [6], the Ratio is 250 s⁻¹ M⁻¹.

Turning to `Cc1ncsc1-c1ccc([C@H](C)NC(=O)[C@@H]2C[C@@H](O)CN2C(=O)[C@@H](NC(=O)CCCCCC(=O)N2CCN(CC[C@H](CSc3ccccc3)Nc3ccc(S(=O)(=O)NC(=O)c4ccc(N5CCN(CC6=C(c7ccc(Cl)cc7)CCC(C)(C)C6)CC5)cc4)cc3S(=O)(=O)C(F)(F)F)CC2)C(C)(C)C)cc1` [DT-2216], the DC50 in assay [7] worked out at 63 nM. In addition, in assay [8], the Emax was found to be 91%.

In the case of `O=C1CCC(N2Cc3cc(C4CCN(Cc5ccccc5)CC4)ccc3C2=O)C(=O)N1` (centres undefined), half-maximal degradation in assay [9] (DC50) was put at 11 nM. The Emax in assay [10] was 69%.

`Cc1ncsc1-c1ccc([C@H](C)NC(=O)[C@@H]2C[C@@H](O)CN2C(=O)[C@@H](NC(=O)CCCCCCCCCCNC(=O)CCc2cccc(-c3ccc4nc(-c5cccnc5N)n(-c5ccc(C6(N)CCC6)cc5)c4n3)c2)C(C)(C)C)cc1`: the Emax in assay [11] was > 80%. The half-maximal degradation concentration (DC50) in [12] is 23 nM.

Take `Cc1ncsc1-c1ccc([C@H](CC[C@H](C)CCN2CCC(c3ccc4c(c3)n(C3CCCC3)c3nc(=O)c5c(Br)cccc5n43)CC2)NC(=O)[C@@H]2C[C@@H](O)CN2C(=O)[C@@H](NC(=O)C2(F)CC2)C(C)(C)C)cc1`: in [13], the Emax turned out to be 81%.

The compound `CS(=O)(=O)N1CC[C@H](C#CC(=O)N2CCC[C@@H](c3ccc(Cl)c(Cl)c3)C2)C1` returned a 50% inhibitory concentration (IC50) in assay [14] of 32 nM.

As to `COc1cc(-c2cn(C)c(=O)c3cnc(N4CCC4)cc23)cc(OC)c1CN1CCC(CN2CCC3(CC2)CN(c2ccc4c(c2)C(=O)N([C@H]2CCC(=O)NC2=O)C4)C3)CC1`, the Emax in assay [2] is 97%. Besides, in assay [3], the DC50 was < 1 nM.

`C=CC(=O)N1CCN(c2nc(OC[C@@H]3CCCN3C)nc3c(F)c(-c4nc(N)cc(C)c4C(F)(F)F)c(Cl)cc23)[C@@H](C)C1`: in [15], the Ratio was 27000 s⁻¹ M⁻¹.
